Reference: PubChem BioAssay AID1259407 (Chemical Carcinogenesis Research Information System (CCRIS), 2018)
The source made the active and inactive calls. The rule behind the calls is not given here.

Tested on: CCRIS mutagenicity, Ames/micronucleus/aberration tests
Assay: CCRIS mutagenicity studies
[1] = Test System: AMES SALMONELLA TYPHIMURIUM, Strain/Indicator: TA100, Metabolic Activation: NONE, Method: STANDARD PLATE

Q: `CC(C)C(C)(C)C(C)(C)C(C)(C)S` was tested. Which mutagenic call (Test System: AMES SALMONELLA TYPHIMURIUM, Strain/Indicator: TA97, Metabolic Activation: HAMSTER, LIVER, S-9, AROCLOR 1254 (10%), Method: PREINCUBATION) did it give?
A: Its mutagenic call is “inactive; negative”.

Q: What about the mutagenic call (Test System: AMES SALMONELLA TYPHIMURIUM, Strain/Indicator: TA97, Metabolic Activation: HAMSTER, LIVER, S-9, AROCLOR 1254 (10 OR 30%), Method: PREINCUBATION) of the same molecule?
A: Its mutagenic call is “inactive; negative”.

Q: What about the mutagenic call (Test System: AMES SALMONELLA TYPHIMURIUM, Strain/Indicator: TA97, Metabolic Activation: HAMSTER, LIVER, S-9, AROCLOR 1254 (30%), Method: PREINCUBATION) of the same molecule?
A: Its mutagenic call is “inactive; negative”.

Q: What about the mutagenic call (Test System: AMES SALMONELLA TYPHIMURIUM, Strain/Indicator: TA97, Metabolic Activation: NONE, Method: PREINCUBATION) of the same molecule?
A: Its mutagenic call is “inactive; negative”.

Q: And the mutagenic call (Test System: AMES SALMONELLA TYPHIMURIUM, Strain/Indicator: TA97, Metabolic Activation: RAT, LIVER, S-9, AROCLOR 1254 (10 OR 30%), Method: PREINCUBATION)?
A: Its mutagenic call is “inactive; negative”.

Q: What about the mutagenic call (Test System: AMES SALMONELLA TYPHIMURIUM, Strain/Indicator: TA98, Metabolic Activation: HAMSTER, LIVER, S-9, AROCLOR 1254 (10 OR 30%), Method: PREINCUBATION) of the same molecule?
A: Its mutagenic call is “inactive; negative”.

Q: What about the mutagenic call (Test System: AMES SALMONELLA TYPHIMURIUM, Strain/Indicator: TA98, Metabolic Activation: NONE, Method: PREINCUBATION) of the same molecule?
A: The mutagenic call was “inactive; negative”.

Q: And the mutagenic call (Test System: AMES SALMONELLA TYPHIMURIUM, Strain/Indicator: TA98, Metabolic Activation: RAT, LIVER, S-9, AROCLOR 1254 (10 OR 30%), Method: PREINCUBATION)?
A: Its mutagenic call is “inactive; negative”.

Q: And the mutagenic call (Test System: AMES SALMONELLA TYPHIMURIUM, Strain/Indicator: TA100, Metabolic Activation: HAMSTER, LIVER, S-9, AROCLOR 1254 (10 OR 30%), Method: PREINCUBATION)?
A: The mutagenic call was “inactive; negative”.

Q: What about the mutagenic call (Test System: AMES SALMONELLA TYPHIMURIUM, Strain/Indicator: TA100, Metabolic Activation: NONE, Method: PREINCUBATION) of the same molecule?
A: Its mutagenic call is “inactive; negative”.

Q: And the mutagenic call (Test System: AMES SALMONELLA TYPHIMURIUM, Strain/Indicator: TA100, Metabolic Activation: RAT, LIVER, S-9, AROCLOR 1254 (10 OR 30%), Method: PREINCUBATION)?
A: Its mutagenic call is “inactive; negative”.

Q: And the mutagenic call (Test System: AMES SALMONELLA TYPHIMURIUM, Strain/Indicator: TA1535, Metabolic Activation: HAMSTER, LIVER, S-9, AROCLOR 1254 (10 OR 30%), Method: PREINCUBATION)?
A: The mutagenic call was “inactive; negative”.

Q: What about the mutagenic call (Test System: AMES SALMONELLA TYPHIMURIUM, Strain/Indicator: TA1535, Metabolic Activation: NONE, Method: PREINCUBATION) of the same molecule?
A: The mutagenic call was “inactive; negative”.

Q: And the mutagenic call (Test System: AMES SALMONELLA TYPHIMURIUM, Strain/Indicator: TA1535, Metabolic Activation: RAT, LIVER, S-9, AROCLOR 1254 (10 OR 30%), Method: PREINCUBATION)?
A: Its mutagenic call is “inactive; negative”.

Q: How did the mutagenic call (End Point: In vitro Chromosomal aberrations, Test System: Chinese hamster lung fibroblast cells (CHL/IU), Metabolic Activation: Rat, liver, S-9) turn out when `Fc1cnc2ccccc2c1` was run?
A: Its mutagenic call is “active; positive (information derived from a figure)”.

Q: And the mutagenic call (End Point: In vitro Micronucleus, Test System: Chinese hamster lung fibroblast cells (CHL/IU), Metabolic Activation: Rat, liver, S-9)?
A: The mutagenic call was “active; positive (information derived from a figure)”.

Q: What about the mutagenic call (Test System: AMES SALMONELLA TYPHIMURIUM, Strain/Indicator: TA100, Metabolic Activation: RAT LIVER S-9, PHENOBARBITAL AND 5,6-BENZOFLAVONE, Method: PREINCUBATION) of the same molecule?
A: Its mutagenic call is “inactive; negative”.

Q: And the mutagenic call (Test System: AMES SALMONELLA TYPHIMURIUM, Strain/Indicator: TA100, Metabolic Activation: RAT, LIVER, S-9, AROCLOR 1254, Method: PREINCUBATION)?
A: The mutagenic call was “inactive; negative”.

Q: What about the mutagenic call (Test System: AMES SALMONELLA TYPHIMURIUM, Strain/Indicator: TA100, Metabolic Activation: RAT, LIVER, S-9, PHENOBARBITAL AND 5,6-BENZOFLAVONE, Method: PREINCUBATION) of the same molecule?
A: The mutagenic call was “inactive; negative”.

Q: What about the mutagenic call (Test System: AMES SALMONELLA TYPHIMURIUM, Strain/Indicator: TA100, Metabolic Activation: RAT, LIVER, S-9, PHENOBARBITAL AND 5,6-NAPHTHOFLAVONE, Method: PREINCUBATION) of the same molecule?
A: The mutagenic call was “inactive; negative”.

Q: What about the mutagenic call (Test System: AMES SALMONELLA, Strain/Indicator: TA100, Metabolic Activation: RAT, LIVER, S-9, PHENOBARBITAL AND 5,6-BENZOFLAVONE, Method: PREINCUBATION) of the same molecule?
A: Its mutagenic call is “inactive; negative”.

Q: What about the mutagenic call (Test System: UDS RODENT HEPATOCYTES, Strain/Indicator: THY INCORP (NON-S-PHASE), Metabolic Activation: NONE, Method: AUTORADIOGRAPHY) of the same molecule?
A: The mutagenic call was “inactive; negative”.

Q: What does the source list for `CCCCON(OC(C)=O)C(=O)c1ccc(C(C)(C)C)cc1`?
A: mutagenic call [1]: active; positive; mutagenic call (Test System: AMES SALMONELLA TYPHIMURIUM, Strain/Indicator: TA100, Metabolic Activation: RAT, S-9, AROCLOR, Method: STANDARD PLATE): active; positive

Q: `ClCCNCCCNc1c2ccccc2nc2ccccc12` was tested. Which mutagenic call (Test System: AMES SALMONELLA TYPHIMURIUM, Strain/Indicator: TA98, Metabolic Activation: NONE, Method: STANDARD PLATE) did it give?
A: The mutagenic call was “active; positive”.

Q: What about the mutagenic call [1] of the same molecule?
A: The mutagenic call was “active; positive”.

Q: What about the mutagenic call (Test System: AMES SALMONELLA TYPHIMURIUM, Strain/Indicator: TA1535, Metabolic Activation: NONE, Method: STANDARD PLATE) of the same molecule?
A: Its mutagenic call is “active; positive”.

Q: And the mutagenic call (Test System: AMES SALMONELLA TYPHIMURIUM, Strain/Indicator: TA1536, Metabolic Activation: NONE, Method: STANDARD PLATE)?
A: The mutagenic call was “active; positive”.

Q: And the mutagenic call (Test System: AMES SALMONELLA TYPHIMURIUM, Strain/Indicator: TA1537, Metabolic Activation: NONE, Method: STANDARD PLATE)?
A: The mutagenic call was “active; positive”.

Q: What about the mutagenic call (Test System: AMES SALMONELLA TYPHIMURIUM, Strain/Indicator: TA1538, Metabolic Activation: NONE, Method: STANDARD PLATE) of the same molecule?
A: The mutagenic call was “active; positive”.
